In publication PMC6769516, “Apoptotic Effects of Drug Targeting Conjugates Containing Different GnRH Analogs on Colon Carcinoma Cells” (International Journal of Molecular Sciences, 2019):
Like-named read-outs stand apart in the source and are kept apart here. Non-standard residues stand in square brackets, D forms with d. Residues, ends and D or L forms follow the SMILES beside them. *: point of attachment. Daunorubicin(13-NOCH2CO) = COc1cccc2c1C(=O)c1c(O)c3c(c(O)c1C2=O)C[C@@](O)(C(C)=NOCC(=O)*)C[C@@H]3O[C@H]1C[C@H](N)[C@H](O)[C@H](C)O1; pGlu = O=C1CC[C@@H](C(=O)O)N1; Butyryl = CCCC(=O)*

Test system: HT-29 cell line
Test: Cell viability assay, impedance-based xCELLigence SP System
Design: species or system human
Conditions: for IC50: Delta CI normalized to control, sigmoidal fit, mean ± SD of three parallel measurements, read-out: IC50 of cytotoxicity; for Viability (control = 100 %): conjugate at 10^-4 M, mean of three parallels ± SD
Procedure: The effects of different GnRH conjugates on HT-29 cell growth were measured by the xCELLigence SP System (ACEA Biosciences, San Diego, CA, USA), which allows cell viability to be detected in real-time via impedance readouts. The experimental setup and the procedure were almost identical to the one described in more detail in our previous works. The continuous monitoring of cell viability provides the opportunity to determine the difference in the time-dependent cellular response for the various GnRH conjugates and to select the optimal time points to conduct more specific end-point assays (e.g., apoptosis assays) for further investigating the mechanism of antitumor activity. […] CI is a dimensionless value and is calculated from the impedance of the well with cells and the background impedance of the well without cells.
Briefly, the main steps of the experiment are the following: (i) the background measurement, in which 80 µL complete cell culture medium was loaded to each well of an E-plate in order to establish a constant CI value; (ii) the cell monitoring step, in which 100 µL of cell suspension (10^5 cell/mL) was added to each well followed by an incubation period of 24 h; and (iii) the compound activity monitoring step, in which test-conjugates (final concentration range: 32 nM–100 µM) were added to the cells at the plateau phase and the CI change was recorded for a further 72 h at 10 kHz. Stock solutions (5 × 10^−3 M) were prepared from the test-conjugates in distilled water and then further diluted to 320 nM–1 mM in the complete cell culture medium. The wells treated with an adequate volume of pure cell culture medium represented the control. Triplicate wells were used for each treatment for statistical analysis.
Delta CI values—a difference of CI value at the time point of cell inoculation and CI value at a given time point—were calculated by RTCA 2.0 software (ACEA Biosciences, San Diego, CA, USA) integrated into the xCELLigence SP System to characterize the time-dependent antiproliferative/cytotoxic effect of the different GnRH conjugates. IC50 values were used to compare the effect of the conjugates.

Row | Structure (SMILES) | IC50 (24 h incubation) | IC50 (48 h incubation) | IC50 (72 h incubation) | Viability (control = 100 %) (24 h) | Viability (control = 100 %) (48 h) | Viability (control = 100 %) (72 h)
1 | CCCC(=O)NCCCC[C@H](NC(=O)[C@H](Cc1c[nH]c2ccccc12)NC(=O)[C@H](Cc1c[nH]cn1)NC(=O)[C@@H]1CCC(=O)N1)C(=O)N[C@@H](Cc1ccc(O)cc1)C(=O)N[C@H](CCCCNC(=O)CON=C(C)[C@]1(O)Cc2c(O)c3c(c(O)c2[C@@H](O[C@H]2C[C@H](N)[C@H](O)[C@H](C)O2)C1)C(=O)c1c(OC)cccc1C3=O)C(=O)N[C@@H](CC(C)C)C(=O)N[C@@H](CCCNC(=N)N)C(=O)N1CCC[C@H]1C(=O)NCC(N)=O [I-[^4Lys(Bu),^6D-Lys(Dau)], GnRH-I-[^4Lys(Bu),^6D-Lys(Dau=Aoa)]] ([pGlu]HWK(Butyryl)Y[dK](Daunorubicin(13-NOCH2CO))LRPG-NH2) | > 100 µM | 18.7 ± 1.19 µM | 16.2 ± 1.75 µM | 86.69 ± 4.84% | 15.50 ± 0.55% | 5.31 ± 1.27%
2 | COc1cccc2c1C(=O)c1c(O)c3c(c(O)c1C2=O)C[C@@](O)(C(C)=NOCC(=O)NCCCC[C@@H](NC(=O)[C@H](Cc1ccc(O)cc1)NC(=O)[C@H](CO)NC(=O)[C@H](Cc1c[nH]c2ccccc12)NC(=O)[C@H](Cc1c[nH]cn1)NC(=O)[C@@H]1CCC(=O)N1)C(=O)N[C@@H](CC(C)C)C(=O)N[C@@H](CCCNC(=N)N)C(=O)N1CCC[C@H]1C(=O)NCC(N)=O)C[C@@H]3O[C@H]1C[C@H](N)[C@H](O)[C@H](C)O1 [I-[^4Ser,^6D-Lys(Dau)], GnRH-I-[^4Ser,^6D-Lys(Dau=Aoa)]] | > 100 µM | 60.2 ± 3.5 µM | 21.9 ± 1.54 µM | – | 43.82 ± 1.18% | –
3 | CCCC(=O)NCCCC[C@H](NC(=O)[C@H](Cc1c[nH]c2ccccc12)NC(=O)[C@H](Cc1c[nH]cn1)NC(=O)[C@@H]1CCC(=O)N1)C(=O)N[C@@H](Cc1c[nH]cn1)C(=O)N[C@H](CCCCNC(=O)CON=C(C)[C@]1(O)Cc2c(O)c3c(c(O)c2[C@@H](O[C@H]2C[C@H](N)[C@H](O)[C@H](C)O2)C1)C(=O)c1c(OC)cccc1C3=O)C(=O)N[C@@H](Cc1c[nH]c2ccccc12)C(=O)N[C@@H](Cc1ccc(O)cc1)C(=O)N1CCC[C@H]1C(=O)NCC(N)=O [II-[^4Lys(Bu),^6D-Lys(Dau)], GnRH-II-[^4Lys(Bu),^6D-Lys(Dau=Aoa)]] ([pGlu]HWK(Butyryl)H[dK](Daunorubicin(13-NOCH2CO))WYPG-NH2) | 65.8 ± 3.89 µM | 69.7 ± 4.12 µM | 48.1 ± 6.89 µM | 35.64 ± 3.41% | 19.40 ± 2.77% | 24.31 ± 4.20%
4 | COc1cccc2c1C(=O)c1c(O)c3c(c(O)c1C2=O)C[C@@](O)(C(C)=NOCC(=O)NCCCC[C@@H](NC(=O)[C@H](Cc1c[nH]cn1)NC(=O)[C@H](CO)NC(=O)[C@H](Cc1c[nH]c2ccccc12)NC(=O)[C@H](Cc1c[nH]cn1)NC(=O)[C@@H]1CCC(=O)N1)C(=O)N[C@@H](Cc1c[nH]c2ccccc12)C(=O)N[C@@H](Cc1ccc(O)cc1)C(=O)N1CCC[C@H]1C(=O)NCC(N)=O)C[C@@H]3O[C@H]1C[C@H](N)[C@H](O)[C@H](C)O1 [II-[^4Ser,^6D-Lys(Dau)], GnRH-II-[^4Ser,^6D-Lys(Dau=Aoa)]] ([pGlu]HWSH[dK](Daunorubicin(13-NOCH2CO))WYPG-NH2) | 58.9 ± 10 µM | 24.2 ± 0.86 µM | 19.7 ± 2.51 µM | – | 16.91 ±1.91% | 20.43 ± 2.66%
